Source: US9078444B2, “Isothiazoline derivatives as insecticidal compounds” (Syngenta Participations AG, priority 2011, dated 2015)
Read-outs that look alike come from different tables or passages of the source.

Assays:
Format in all cases: in vivo
Spodoptera littoralis [1] = experiment: Spodoptera littoralis persistence test on sprayed cotton plants (increased safety profile / bio-degradability); conditions: 12.5 ppm on cotton plants, 10 L3 larvae, mortality after 6 days incubation; for Control after 10 days/%: leaves excised 10 days after treatment; for pest or weed control at 12.5 ppm: Spodoptera littoralis
Procedure: Biological Examples Showing Increased Safety Profile:
Spodoptera littoralis (Egyptian Cotton Leafworm)
Cotton plants in the 5th leaf stage (around 5 weeks old) are treated in an automated turn table spray chamber. Plants are stored in the greenhouse length during the whole test period.
2, 16 and optionally 10 days after treatment 4 leaves from each sample are excised, placed into 14 cm plastic petri dishes on wet filter paper. The infestation of 10 L3-Spodoptera littoralis is made immediately afterwards. After an incubation period of 6 days the samples are checked for mortality.
In the following series of experiments the compounds of the invention are compared with the corresponding isoxazoline analogues from the prior art on Spodoptera littoralis (Egyptian cotton leafworm) performed as described in the method above.

Heliothis virescens = Heliothis virescens (tobacco budworm) egg test on artificial diet; conditions: 96 h, 200 ppm (concentration in well 18 ppm), eggs on artificial diet, egg mortality, larval mortality, growth regulation after 4 days
Procedure: Heliothis virescens (Tobacco Budworm): Eggs (0-24 h old) were placed in 24-well microtiter plate on artificial diet and treated with test solutions at an application rate of 200 ppm (concentration in well 18 ppm) by pipetting. After an incubation period of 4 days, samples were checked for egg mortality, larval mortality, and growth regulation.

Diabrotica balteata = Diabrotica balteata (corn root worm) artificial diet test; conditions: 120 h, 200 ppm (concentration in well 18 ppm), L2 larvae, larval mortality and growth regulation after 5 days
Procedure: (§1) Diabrotica balteata (Corn Root Worm): A 24-well microtiter plate (MTP) with artificial diet was treated with test solutions at an application rate of 200 ppm (concentration in well 18 ppm) by pipetting. After drying, the MTPs were infested with L2 larvae (6-10 per well). After an incubation period of 5 days, samples were checked for larval mortality and growth regulation.

Tetranychus urticae = Tetranychus urticae (two-spotted spider mite) bean leaf disc test; conditions: foliar, 192 h, 200 ppm sprayed on bean leaf discs, mixed ages, egg, larval and adult mortality 8 days later
Excerpt: Tetranychus urticae (Two-Spotted Spider Mite): Bean leaf discs on agar in 24-well microtiter plates were sprayed with test solutions at an application rate of 200 ppm. After drying, the leaf discs are infested with mite populations of mixed ages. 8 days later, discs are checked for egg mortality, larval mortality, and adult mortality.

Plutella xylostella = Plutella xylostella (diamond back moth) artificial diet test; conditions: 144 h, 200 ppm (concentration in well 18 ppm), L2 larvae, larval mortality and growth regulation after 6 days
Procedure: as §1, with “Plutella xylostella (Diamond Back Moth):” for “Diabrotica balteata (Corn Root Worm): A”, “(7-12” for “(6-10”, “6” for “5”

Spodoptera littoralis [2] = experiment: Spodoptera littoralis (Egyptian cotton leafworm) cotton leaf disc test; conditions: foliar, 72 h, 200 ppm sprayed on cotton leaf discs, mortality, feeding behavior, growth regulation 3 days after treatment
Procedure: Spodoptera littoralis (Egyptian Cotton Leafworm): Cotton leaf discs were placed on agar in a 24-well microtiter plate and sprayed with test solutions at an application rate of 200 ppm. After drying, the leaf discs were infested with […]. The samples were checked for mortality, feeding behavior, and growth regulation 3 days after treatment (DAT).

Thrips tabaci = Thrips tabaci (onion thrips) sunflower leaf disc test; conditions: foliar, 168 h, 200 ppm sprayed on sunflower leaf discs, mixed ages, mortality after 7 days
Procedure: Thrips tabaci (Onion Thrips): Sunflower leaf discs were placed on agar in a 24-well microtiter plate and sprayed with test solutions at an application rate of 200 ppm. After drying, the leaf discs were infested with a thrips population of mixed ages. After an incubation period of 7 days, samples were checked for mortality.

[3] = 48 h, leaves excised 2 days after treatment, read-out: Control after 2 days/%
[4] = 384 h, leaves excised 16 days after treatment, read-out: Control after 16 days/%

Compound | Control after 10 days/% (Spodoptera littoralis [1]) | pest or weed control at 12.5 ppm (Spodoptera littoralis [1]; [3]) | pest or weed control at 12.5 ppm (Spodoptera littoralis [1]; [4]) | pest or weed control at 200 ppm (Heliothis virescens) | pest or weed control at 200 ppm (Diabrotica balteata) | pest or weed control at 200 ppm (Tetranychus urticae) | pest or weed control at 200 ppm (Plutella xylostella) | pest or weed control at 200 ppm (Spodoptera littoralis [2]) | pest or weed control at 200 ppm (Thrips tabaci) | Control after 2 days/% (Spodoptera littoralis [1]; leaves excised 2 days after treatment) | Control after 16 days/% (Spodoptera littoralis [1]; leaves excised 16 days after treatment)
Cc1cc(C2=NOC(c3cc(Cl)cc(Cl)c3)(C(F)(F)F)C2)ccc1C(=O)NCc1ccccn1 (stereo not shown) [Compound 1-061 from EP1731512, reference compound] | 100% | 100% | 100% | – | – | – | – | – | – | – | –
Cc1cc(C2=NSC(c3cc(Cl)c(Cl)c(Cl)c3)(C(F)(F)F)C2)ccc1C(=O)NCC(=O)NCC(F)(F)F (stereo not shown) [Compound D1, 2-methyl-N-[2-oxo-2-(2,2,2-trifluoroethylamino)ethyl]-4-[5-(3,4,5-trichlorophenyl)-5-(trifluoromethyl)-4H-isothiazol-3-yl]benzamide] | – | 100% | 10% | ≥ 80% | ≥ 80% | ≥ 80% | ≥ 80% | ≥ 80% | ≥ 80% | – | –
Cc1cc(C2=NOC(c3cc(Cl)cc(Cl)c3)(C(F)(F)F)C2)ccc1C(=O)NCC(=O)NCC(F)(F)F (stereo not shown) [Compound 3-086 from EP1731512, reference compound] | 100% | 100% | 100% | – | – | – | – | – | – | – | –
Cc1cc(C2=NSC(c3cc(Cl)cc(Cl)c3)(C(F)(F)F)C2)ccc1C(=O)NCc1ccccn1 (stereo not shown) [Compound A16] | 25% | 100% | 10% | ≥ 80% | ≥ 80% | ≥ 80% | ≥ 80% | ≥ 80% | ≥ 80% | – | –
Cc1cc(C2=NSC(c3cc(Cl)cc(Cl)c3)(C(F)(F)F)C2)ccc1C(=O)NC1CCC1 (stereo not shown) [Compound A24] | – | – | – | – | – | – | – | – | – | 100% | 0%
Cc1cc(C2=NSC(c3cc(Cl)cc(Cl)c3)(C(F)(F)F)C2)ccc1C(=O)NCC1CC1 (stereo not shown) [Compound A53] | – | 85% | 0% | ≥ 80% | ≥ 80% | ≥ 80% | ≥ 80% | ≥ 80% | ≥ 80% | – | –
Cc1cc(C2=NSC(c3cc(Cl)cc(Cl)c3)(C(F)(F)F)C2)ccc1C(=O)NCC(=O)NCC(F)(F)F (stereo not shown) [Compound A01, 4-[5-(3,5-dichlorophenyl)-5-(trifluoromethyl)-4H-isothiazol-3-yl]-2-methyl-N-[2-oxo-2-(2,2,2-trifluoroethylamino)ethyl]benzamide] | 60% | 100% | 10% | ≥ 80% | ≥ 80% | ≥ 80% | ≥ 80% | ≥ 80% | ≥ 80% | – | –
CO/N=C/NC(=O)c1ccc(C2=NSC(c3cc(Cl)cc(Cl)c3)(C(F)(F)F)C2)cc1C (stereo not shown) [Compound C1, 4-[5-(3,5-dichlorophenyl)-5-(trifluoromethyl)-4H-isothiazol-3-yl]-N-[(E)-methoxyiminomethyl]-2-methyl-benzamide] | – | 100% | 5% | ≥ 80% | ≥ 80% | ≥ 80% | ≥ 80% | ≥ 80% | ≥ 80% | – | –
Cc1cc(C2=NSC(c3cc(Cl)cc(Cl)c3)(C(F)(F)F)C2)ccc1C(=O)NC1(C#N)CC1 (stereo not shown) [Compound A45] | – | 75% | 0% | ≥ 80% | ≥ 80% | ≥ 80% | ≥ 80% | ≥ 80% | ≥ 80% | – | –
Cc1cc(C2=NOC(c3cc(Cl)cc(Cl)c3)(C(F)(F)F)C2)ccc1C(=O)NC1CS(=O)(=O)C1 (stereo not shown) [Compound A10 from WO2009/080250, reference compound] | 100% | 100% | 100% | – | – | – | – | – | – | – | –
Cc1cc(C2=NSC(c3cc(Cl)cc(Cl)c3)(C(F)(F)F)C2)ccc1C(=O)NC1CC1 (stereo not shown) [Compound A52] | – | – | – | ≥ 80% | ≥ 80% | ≥ 80% | ≥ 80% | ≥ 80% | ≥ 80% | – | –
CCCNC(=O)c1ccc(C2=NSC(c3cc(Cl)cc(Cl)c3)(C(F)(F)F)C2)cc1C (stereo not shown) [Compound A36] | – | – | – | ≥ 80% | ≥ 80% | ≥ 80% | ≥ 80% | ≥ 80% | ≥ 80% | – | –
CCC(C)NC(=O)c1ccc(C2=NSC(c3cc(Cl)cc(Cl)c3)(C(F)(F)F)C2)cc1C (stereo not shown) [Compound A08] | – | – | – | ≥ 80% | ≥ 80% | ≥ 80% | ≥ 80% | ≥ 80% | ≥ 80% | – | –
Cc1cc(C2=NSC(c3cc(Cl)c(Cl)c(Cl)c3)(C(F)(F)F)C2)ccc1C(=O)NC1CS(=O)(=O)C1 (stereo not shown) [Compound D2, N-(1,1-dioxothietan-3-yl)-2-methyl-4-[5-(3,4,5-trichlorophenyl)-5-(trifluoromethyl)-4H-isothiazol-3-yl]benzamide] | – | – | – | ≥ 80% | ≥ 80% | ≥ 80% | ≥ 80% | ≥ 80% | ≥ 80% | – | –
Cc1cc(C2=NSC(c3cc(Cl)cc(Cl)c3)(C(F)(F)F)C2)ccc1C(=O)NCC(F)F (stereo not shown) [Compound A42] | – | – | – | ≥ 80% | ≥ 80% | ≥ 80% | ≥ 80% | ≥ 80% | ≥ 80% | – | –
Cc1cc(C2=NSC(c3cc(Cl)cc(Cl)c3)(C(F)(F)F)C2)ccc1C(=O)Nc1cncnc1 (stereo not shown) [Compound A48] | – | – | – | ≥ 80% | ≥ 80% | ≥ 80% | ≥ 80% | ≥ 80% | ≥ 80% | – | –
Cc1csc(NC(=O)c2ccc(C3=NSC(c4cc(Cl)cc(Cl)c4)(C(F)(F)F)C3)cc2C)n1 (stereo not shown) [Compound A18] | – | – | – | ≥ 80% | ≥ 80% | ≥ 80% | ≥ 80% | ≥ 80% | ≥ 80% | – | –
COCC(C)NC(=O)c1ccc(C2=NSC(c3cc(Cl)cc(Cl)c3)(C(F)(F)F)C2)cc1C (stereo not shown) [Compound A06] | – | – | – | ≥ 80% | ≥ 80% | ≥ 80% | ≥ 80% | ≥ 80% | ≥ 80% | – | –
C#CCNC(=O)c1ccc(C2=NSC(c3cc(Cl)cc(Cl)c3)(C(F)(F)F)C2)cc1C (stereo not shown) [Compound A35] | – | – | – | ≥ 80% | ≥ 80% | ≥ 80% | ≥ 80% | ≥ 80% | ≥ 80% | – | –
